Results published in patent US20240376163A1, “PEPTIDE FOR INHIBITING CALCINEURIN AND USE THEREOF” (Seoul National University R&DB Foundation, priority 2023, published 2024).

Tested on: Jurkat T cells
Test: mRNA sequencing of activated Jurkat T cells
Format: cell-based, human

PEITVTPPTP [CABIN1-L-1-2]
CRIM1 FPKM (P + I): 0.333 FPKM
CRTAM FPKM (P + I): 9.51 FPKM
CSF1 FPKM (P + I): 2.594 FPKM
CSF2 FPKM (P + I): 0.314 FPKM
CST7 FPKM (P + I): 3.175 FPKM
CXCL8 FPKM (P + I): 3.327 FPKM
CXCR3 FPKM (P + I): 1.803 FPKM
DSTYK FPKM (P + I): 3.595 FPKM
FBXO34 FPKM (P + I): 18.386 FPKM
FMNL2 FPKM (P + I): 3.019 FPKM
FOSL2 FPKM (P + I): 2.362 FPKM
FOXO1 FPKM (P + I): 3.736 FPKM
FXYD5 FPKM (P + I): 42.856 FPKM
FYN FPKM (P + I): 15.512 FPKM
GFOD1 FPKM (P + I): 6.312 FPKM
GRK5 FPKM (P + I): 8.975 FPKM
GTDC1 FPKM (P + I): 5.144 FPKM
IL2 FPKM (P + I): 12.964 FPKM
IL3 FPKM (P + I): 6.298 FPKM
IL21R FPKM (P + I): 5.255 FPKM
IL21R-AS1 FPKM (P + I): 3.991 FPKM
IQCJ-SCHIP1 FPKM (P + I): 1.234 FPKM
IRF4 FPKM (P + I): 2.092 FPKM
IRF8 FPKM (P + I): 1.914 FPKM
ISM1 FPKM (P + I): 3.737 FPKM
JAK2 FPKM (P + I): 8.45 FPKM
KCNK1 FPKM (P + I): 13.139 FPKM
KCNK5 FPKM (P + I): 4.904 FPKM
LAMP3 FPKM (P + I): 9.828 FPKM
LAX1 FPKM (P + I): 7.578 FPKM
LIF FPKM (P + I): 0.231 FPKM
LOC729603 FPKM (P + I): 3.329 FPKM
LRRC8B FPKM (P + I): 4.298 FPKM
LTBP4 FPKM (P + I): 9.568 FPKM
MAP2K3 FPKM (P + I): 43.237 FPKM
MIR6775 FPKM (P + I): 21.57 FPKM
MIR6821 FPKM (P + I): 25.116 FPKM
MYO1D FPKM (P + I): 5.995 FPKM
NDFIP1 FPKM (P + I): 24.432 FPKM
NFATC1 FPKM (P + I): 3.916 FPKM
NPDC1 FPKM (P + I): 5.64 FPKM
NR4A2 FPKM (P + I): 0.356 FPKM
NTRK1 FPKM (P + I): 1.657 FPKM
PAM FPKM (P + I): 1.934 FPKM
PDGFA FPKM (P + I): 8.169 FPKM
PELI1 FPKM (P + I): 8.465 FPKM
PHACTR2 FPKM (P + I): 2.791 FPKM
PHEX FPKM (P + I): 0.786 FPKM
PIM3 FPKM (P + I): 72.895 FPKM
PKIA FPKM (P + I): 18.138 FPKM
PLK3 FPKM (P + I): 7.036 FPKM
PLS3 FPKM (P + I): 0.37 FPKM
POU2AF1 FPKM (P + I): 2.971 FPKM
PPIF FPKM (P + I): 106.533 FPKM
PTPN6 FPKM (P + I): 20.806 FPKM
PTPN22 FPKM (P + I): 5.119 FPKM
RDH10 FPKM (P + I): 5.524 FPKM
REL FPKM (P + I): 5.699 FPKM
RGS16 FPKM (P + I): 5.595 FPKM
SCHIP1 FPKM (P + I): 1.333 FPKM
SERPINB2 FPKM (P + I): 14.103 FPKM
SHC4 FPKM (P + I): 0.686 FPKM
SLAMF1 FPKM (P + I): 0.275 FPKM
SLC35E4 FPKM (P + I): 1.517 FPKM
SORBS1 FPKM (P + I): 0.511 FPKM
SPRY1 FPKM (P + I): 4.901 FPKM
STAT5A FPKM (P + I): 3.055 FPKM
TAGAP FPKM (P + I): 8.731 FPKM
TBC1D4 FPKM (P + I): 13.191 FPKM
TBC1D20 FPKM (P + I): 18.427 FPKM
TDRD9 FPKM (P + I): 1.888 FPKM
TIAM2 FPKM (P + I): 0.301 FPKM
TM4SF1 FPKM (P + I): 0.907 FPKM
TNFRSF4 FPKM (P + I): 11.916 FPKM
TNFSF9 FPKM (P + I): 2.651 FPKM
TNFSF14 FPKM (P + I): 4.255 FPKM
TNS3 FPKM (P + I): 1.418 FPKM
VAMP1 FPKM (P + I): 14.752 FPKM
XCL1 FPKM (P + I): 1.144 FPKM
XCL2 FPKM (P + I): 2.074 FPKM
ZNF704 FPKM (P + I): 0.183 FPKM
ZNF827 FPKM (P + I): 1.372 FPKM
ABCB10 FPKM (P+I): 9.751 FPKM
ACTG1 FPKM (P+I): 799.981 FPKM
ADAM19 FPKM (P+I): 4.257 FPKM
ADD3 FPKM (P+I): 9.536 FPKM
ADORA2B FPKM (P+I): 6.969 FPKM
AGO2 FPKM (P+I): 14.51 FPKM
AIM1 FPKM (P+I): 27.486 FPKM
APOBEC3A_B FPKM (P+I): 14.665 FPKM
APOBEC3B FPKM (P+I): 59.895 FPKM
APOBEC3C FPKM (P+I): 14.323 FPKM
APOBEC3D FPKM (P+I): 8.981 FPKM
APOL2 FPKM (P+I): 102.003 FPKM
APOL6 FPKM (P+I): 46.762 FPKM
AQP3 FPKM (P+I): 52.98 FPKM
ARAP2 FPKM (P+I): 13.458 FPKM
ARC FPKM (P+I): 10.186 FPKM
ARHGAP23 FPKM (P+I): 1.985 FPKM
ARHGEF6 FPKM (P+I): 27.254 FPKM
ASAP1 FPKM (P+I): 9.052 FPKM
ATG14 FPKM (P+I): 11.252 FPKM
ATP2B4 FPKM (P+I): 10.46 FPKM
ATXN1 FPKM (P+I): 2.083 FPKM
BACH2 FPKM (P+I): 36.118 FPKM
BAI2 FPKM (P+I): 1.079 FPKM
BAIAP2-AS1 FPKM (P+I): 2.144 FPKM
BATF3 FPKM (P+I): 45.085 FPKM
BHLHE40 FPKM (P+I): 9.368 FPKM
BTG1 FPKM (P+I): 23.454 FPKM
C1QL1 FPKM (P+I): 0.756 FPKM
C1orf233 FPKM (P+I): 0.674 FPKM
C3 FPKM (P+I): 1.329 FPKM
C9orf9 FPKM (P+I): 6.009 FPKM
C10orf54 FPKM (P+I): 0.487 FPKM
C16orf46 FPKM (P+I): 3.705 FPKM
CASC15 FPKM (P+I): 2.572 FPKM
CBX4 FPKM (P+I): 11.578 FPKM
CBX6 FPKM (P+I): 65.604 FPKM
CCDC64 FPKM (P+I): 11.039 FPKM
CCDC71L FPKM (P+I): 16.319 FPKM
CCL1 FPKM (P+I): 0.415 FPKM
CCL3L1 FPKM (P+I): 0.079 FPKM
CCL4 FPKM (P+I): 4.062 FPKM
CCL4L1 FPKM (P+I): 0.328 FPKM
CCL4L2 FPKM (P+I): 0.328 FPKM
CCND2 FPKM (P+I): 0.99 FPKM
CD1A FPKM (P+I): 4.51 FPKM
CD1C FPKM (P+I): 2.59 FPKM
CD1D FPKM (P+I): 3.093 FPKM
CD27-AS1 FPKM (P+I): 4.613 FPKM
CD27 FPKM (P+I): 3.4 FPKM
CD55 FPKM (P+I): 12.082 FPKM
CD69 FPKM (P+I): 121.846 FPKM
CD83 FPKM (P+I): 41.173 FPKM
CDCA7 FPKM (P+I): 21.851 FPKM
CDT1 FPKM (P+I): 11.831 FPKM
CFD FPKM (P+I): 1.22 FPKM
CHI3L2 FPKM (P+I): 51.627 FPKM
CHRNA9 FPKM (P+I): 2.572 FPKM
CLEC2B FPKM (P+I): 54.119 FPKM
CNR2 FPKM (P+I): 0.552 FPKM
CORO2A FPKM (P+I): 1.623 FPKM
CRIM1 FPKM (P+I): 0.333 FPKM
CRTAM FPKM (P+I): 9.51 FPKM
CSRNP1 FPKM (P+I): 23.093 FPKM
CST7 FPKM (P+I): 3.175 FPKM
CTDSPL FPKM (P+I): 1.836 FPKM
CTTN FPKM (P+I): 15.629 FPKM
CXCL3 FPKM (P+I): 7.007 FPKM
CXCL9 FPKM (P+I): 7.221 FPKM
CXCL10 FPKM (P+I): 6.288 FPKM
CXCR3 FPKM (P+I): 1.803 FPKM
CYB5RL FPKM (P+I): 1.449 FPKM
DFNA5 FPKM (P+I): 9.395 FPKM
DHFR FPKM (P+I): 6.668 FPKM
DNAJB11 FPKM (P+I): 109.967 FPKM
DNAJC1 FPKM (P+I): 13.844 FPKM
DNPEP FPKM (P+I): 43.482 FPKM
DOK2 FPKM (P+I): 27.542 FPKM
DPY19L2P2 FPKM (P+I): 2.643 FPKM
DPYSL2 FPKM (P+I): 9.177 FPKM
DTX3L FPKM (P+I): 48.261 FPKM
DUSP2 FPKM (P+I): 97.06 FPKM
DUSP5 FPKM (P+I): 157.077 FPKM
E2F1 FPKM (P+I): 8.062 FPKM
E2F2 FPKM (P+I): 3.419 FPKM
EIF2AK3 FPKM (P+I): 9.816 FPKM
ENC1 FPKM (P+I): 9.268 FPKM
ENHO FPKM (P+I): 1.223 FPKM
ENPP1 FPKM (P+I): 51.27 FPKM
EPAS1 FPKM (P+I): 4.197 FPKM
EPHA3 FPKM (P+I): 2.536 FPKM
ERO1LB FPKM (P+I): 4.345 FPKM
ETV5 FPKM (P+I): 13.264 FPKM
EVI2A FPKM (P+I): 10.047 FPKM
FAM46C FPKM (P+I): 5.693 FPKM
FAM111B FPKM (P+I): 4.22 FPKM
FASLG FPKM (P+I): 1.715 FPKM
FBXO34 FPKM (P+I): 18.386 FPKM
FMNL2 FPKM (P+I): 3.019 FPKM
FOS FPKM (P+I): 4.53 FPKM
FOXO1 FPKM (P+I): 3.736 FPKM
FST FPKM (P+I): 6.872 FPKM
FURIN FPKM (P+I): 29.008 FPKM
FYB FPKM (P+I): 10.258 FPKM
GAMT FPKM (P+I): 11.98 FPKM
GBP1 FPKM (P+I): 87.487 FPKM
GBP2 FPKM (P+I): 38.881 FPKM
GBP3 FPKM (P+I): 68.757 FPKM
GBP4 FPKM (P+I): 9.209 FPKM
GBP5 FPKM (P+I): 262.945 FPKM
GDPD5 FPKM (P+I): 39.139 FPKM
GEM FPKM (P+I): 2.963 FPKM
GINS2 FPKM (P+I): 16.516 FPKM
GLIPR2 FPKM (P+I): 11.773 FPKM
GNAQ FPKM (P+I): 17.078 FPKM
GNG2 FPKM (P+I): 17.754 FPKM
GPR3 FPKM (P+I): 9.964 FPKM
